Laboratory results from ChEMBL document CHEMBL1201862, “PubChem BioAssay data set” (2004).
Calls of active or inactive are those of the source.

Experiments:
[1] = biological target: Hepatocyte nuclear factor 4-alpha (Homo sapiens, UniProt P41235); assay type: functional, cell-based;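 also: biochemical luminescence-based dose-response counterscreen measuring inhibition of HNF4 dimerization, run alongside a screen for blockers of ABHD5–perilipin-5 interaction; split luciferase complementation of HNF4 fusion proteins in cell lysate measuring dimerization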
[2] = biological target: Heat shock protein HSP 90-alpha (Homo sapiens, UniProt P07900); assay type: functional, organism-based
Steroidogenic factor 1 = Steroidogenic factor 1 (Homo sapiens, UniProt Q13285); experiment: Counterscreen for inverse agonists of the liver receptor homolog-1 (LRH-1; NR5A2): Luminescence-based cell-based high throughput dose response assay to identify inverse agonists of the Steroidogenic Factor 1 Nuclear Receptor (SF1; NR5A1).; assay type: functional
[3] = biological target: Nuclear receptor subfamily 5 group A member 2 (Homo sapiens, UniProt O00482); assay type: functional, cell-based;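 also: HEK293T cells transfected with LRH-1 and a StAR promoter luciferase reporter; potency for inhibitors that lower LRH-1 driven reporter light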
[4] = nonselective StAR promoter luciferase inhibitors – cell-based, luminescence, luciferase reporter, counter-screen for LRH-1 inverse agonist project, dose response (AID 651969); assay type: functional
[5] = biological target: T1, Sentrin-specific protease 1 (Homo sapiens, UniProt Q9P0U3); experiment: SENP1 catalytic domain blockers, concentration series – biochemical, kinetic FRET, dose response (AID 651697); assay type: functional; conditions: read-out: IC50_Mean
[6] = biological target: T1, Sentrin-specific protease 1; experiment: Dose response confirmation of small molecule inhibitors of the catalytic domain of the SUMO protease, SENP1 in a FRET assay.; assay type: functional; conditions: read-out: IC50_Mean
[7] = biological target: T2, Mitochondrial peptide methionine sulfoxide reductase (Bos taurus, UniProt P54149); assay type: functional;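 also: absorbance read-out, biochemical high-throughput dose-response screen for MsrA inhibitors, confirmatory; recombinant bovine MsrA coupled to E. coli TrxB with NADPH and selenocystamine; potency is for inhibitors of MsrA activity on DMSO substrate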
T2 sequence (P54149 whole entry): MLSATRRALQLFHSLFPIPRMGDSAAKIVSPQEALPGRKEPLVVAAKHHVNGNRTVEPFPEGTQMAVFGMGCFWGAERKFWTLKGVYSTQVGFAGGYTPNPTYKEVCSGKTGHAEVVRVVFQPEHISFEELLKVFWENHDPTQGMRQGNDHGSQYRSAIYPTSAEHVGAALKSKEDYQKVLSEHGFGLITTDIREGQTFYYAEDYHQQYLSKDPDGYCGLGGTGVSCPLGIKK

[8] = Fluorescence-based cell-based high throughput dose response assay for inhibitors of the interaction of nucleotide-binding oligomerization domain containing 2 (NOD2) and the receptor-interacting serine-threonine kinase 2 (RIPK2).; assay type: functional; conditions: Homo sapiens
[9] = biological target: Palmitoyl-protein thioesterase ABHD10, mitochondrial (Mus musculus, UniProt Q6PE15); experiment: Late stage assay provider results from the probe development effort to identify inhibitors of PME-1: fluorescence-based dose response biochemical gel-based competitive Activity-Based Protein Profiling (ABPP) inhibition of ABHD10 Set 2.; assay type: functional
[10] = biological target: T3, Apoptotic protease-activating factor 1 (Homo sapiens, UniProt O14727); assay type: functional
T3 sequence (O14727 whole entry): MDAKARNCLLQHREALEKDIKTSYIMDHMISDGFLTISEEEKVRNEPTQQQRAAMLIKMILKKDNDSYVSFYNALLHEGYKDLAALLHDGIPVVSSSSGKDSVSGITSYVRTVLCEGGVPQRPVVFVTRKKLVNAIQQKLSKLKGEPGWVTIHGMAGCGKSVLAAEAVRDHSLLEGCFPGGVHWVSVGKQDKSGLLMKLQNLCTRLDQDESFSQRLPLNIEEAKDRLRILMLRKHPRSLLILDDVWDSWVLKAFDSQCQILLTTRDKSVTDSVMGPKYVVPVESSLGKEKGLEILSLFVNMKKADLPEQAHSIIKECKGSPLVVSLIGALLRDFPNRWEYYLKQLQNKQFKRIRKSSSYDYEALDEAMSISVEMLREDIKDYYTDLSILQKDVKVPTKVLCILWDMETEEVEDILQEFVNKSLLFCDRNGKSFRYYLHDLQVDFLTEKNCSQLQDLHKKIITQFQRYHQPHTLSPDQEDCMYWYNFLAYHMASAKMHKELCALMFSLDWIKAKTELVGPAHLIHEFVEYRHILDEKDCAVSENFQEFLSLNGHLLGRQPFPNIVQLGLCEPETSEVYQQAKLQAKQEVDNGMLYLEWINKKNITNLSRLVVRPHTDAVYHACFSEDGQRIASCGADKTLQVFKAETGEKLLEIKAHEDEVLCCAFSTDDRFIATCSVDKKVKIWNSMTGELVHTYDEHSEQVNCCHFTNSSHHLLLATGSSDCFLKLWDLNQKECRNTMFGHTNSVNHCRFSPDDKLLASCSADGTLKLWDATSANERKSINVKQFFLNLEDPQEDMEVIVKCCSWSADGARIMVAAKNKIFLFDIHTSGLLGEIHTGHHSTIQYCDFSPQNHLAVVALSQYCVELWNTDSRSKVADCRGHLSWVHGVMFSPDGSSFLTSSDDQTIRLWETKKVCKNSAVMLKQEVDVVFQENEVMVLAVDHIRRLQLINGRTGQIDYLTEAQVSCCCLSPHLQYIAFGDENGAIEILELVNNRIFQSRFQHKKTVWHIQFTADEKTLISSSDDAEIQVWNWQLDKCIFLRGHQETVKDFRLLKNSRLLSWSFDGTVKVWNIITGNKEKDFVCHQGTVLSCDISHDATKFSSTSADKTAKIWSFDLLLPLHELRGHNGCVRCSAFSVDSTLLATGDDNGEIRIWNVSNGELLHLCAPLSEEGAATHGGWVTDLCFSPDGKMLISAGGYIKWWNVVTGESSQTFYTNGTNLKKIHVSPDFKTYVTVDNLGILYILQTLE

[11] = tested on: Streptococcus sp. 'group A'; experiment: Streptococcus pyogenes SK(-)GAS viability under kanamycin – luminescence, BacTiterGlo, confirmation, counter-screen for streptokinase expression inhibitor project, dose response (AID 1900); assay type: functional, organism-based
Streptococcus = experiment: GAS UMAA2166 growth inhibition – luminescence, BacTiterGlo, counter-screen for streptokinase expression inhibitor project, dose response (AID 1915); assay type: functional, organism-based;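 also: potency for reduction of bacterial viability or growth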
[12] = biological target: T4, Replicative DNA helicase DnaB (Mycobacterium tuberculosis, UniProt P9WMR3); experiment: DnaB intein splicing inhibitors, dose response, biochemical, cell-free fluorescence (AID 449749); assay type: functional
T4 sequence (P9WMR3 whole entry): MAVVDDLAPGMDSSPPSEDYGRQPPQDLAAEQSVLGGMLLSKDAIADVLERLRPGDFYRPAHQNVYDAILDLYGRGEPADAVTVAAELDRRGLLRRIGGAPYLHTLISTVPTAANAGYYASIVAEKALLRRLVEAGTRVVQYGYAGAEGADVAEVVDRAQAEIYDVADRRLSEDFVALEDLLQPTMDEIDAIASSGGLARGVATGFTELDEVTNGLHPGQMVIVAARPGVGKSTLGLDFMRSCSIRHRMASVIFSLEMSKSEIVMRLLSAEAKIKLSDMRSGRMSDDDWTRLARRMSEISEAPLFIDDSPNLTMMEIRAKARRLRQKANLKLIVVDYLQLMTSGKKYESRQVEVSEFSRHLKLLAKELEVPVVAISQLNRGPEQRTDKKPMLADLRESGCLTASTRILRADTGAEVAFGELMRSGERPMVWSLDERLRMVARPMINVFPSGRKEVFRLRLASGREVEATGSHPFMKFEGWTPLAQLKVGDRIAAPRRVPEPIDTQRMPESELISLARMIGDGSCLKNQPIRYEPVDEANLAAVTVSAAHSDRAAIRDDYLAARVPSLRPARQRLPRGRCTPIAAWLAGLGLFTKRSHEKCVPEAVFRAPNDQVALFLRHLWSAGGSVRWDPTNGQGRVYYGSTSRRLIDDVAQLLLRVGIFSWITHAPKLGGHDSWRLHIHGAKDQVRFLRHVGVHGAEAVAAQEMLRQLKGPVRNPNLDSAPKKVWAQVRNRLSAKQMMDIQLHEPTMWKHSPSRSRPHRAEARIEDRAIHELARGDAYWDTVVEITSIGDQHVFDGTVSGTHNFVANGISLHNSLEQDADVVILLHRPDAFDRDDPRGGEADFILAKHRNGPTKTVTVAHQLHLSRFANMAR

INS1 = experiment: INS-1E survival protection against cytokine death – cell-based, luminescence, retest, dose response (AID 449756); assay type: functional; conditions: Rattus norvegicus;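 also: cell death triggered by IL-1 beta plus TNF-alpha plus IFN-gamma mixture; protective hits raise ATP signal compared with cytokine alone wells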
[13] = bead-based luminescence quenchers, dual-tagged ARNT – biochemical, AlphaScreen, cherry-pick, artefact control for ARNT-TACC3 interaction inhibitor project, dose response (AID 651705); assay type: functional;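 also: AlphaScreen bead proximity signal that flags compounds interfering with the detection technology; potency reflects signal decrease which marks the compound as an assay artifact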
Protein RecA = biological target: T5, Protein RecA (Mycobacterium tuberculosis, UniProt P9WHJ3); experiment: Fluorescence Cell-Free Homogeneous Dose Retest to Identify Inhibitors of RecA-Intein Splicing Activity. [Related pubchem assays (depositor defined):AID2097, AID2223, AID489010, AID492950]; assay type: functional
T5 sequence (P9WHJ3 whole entry): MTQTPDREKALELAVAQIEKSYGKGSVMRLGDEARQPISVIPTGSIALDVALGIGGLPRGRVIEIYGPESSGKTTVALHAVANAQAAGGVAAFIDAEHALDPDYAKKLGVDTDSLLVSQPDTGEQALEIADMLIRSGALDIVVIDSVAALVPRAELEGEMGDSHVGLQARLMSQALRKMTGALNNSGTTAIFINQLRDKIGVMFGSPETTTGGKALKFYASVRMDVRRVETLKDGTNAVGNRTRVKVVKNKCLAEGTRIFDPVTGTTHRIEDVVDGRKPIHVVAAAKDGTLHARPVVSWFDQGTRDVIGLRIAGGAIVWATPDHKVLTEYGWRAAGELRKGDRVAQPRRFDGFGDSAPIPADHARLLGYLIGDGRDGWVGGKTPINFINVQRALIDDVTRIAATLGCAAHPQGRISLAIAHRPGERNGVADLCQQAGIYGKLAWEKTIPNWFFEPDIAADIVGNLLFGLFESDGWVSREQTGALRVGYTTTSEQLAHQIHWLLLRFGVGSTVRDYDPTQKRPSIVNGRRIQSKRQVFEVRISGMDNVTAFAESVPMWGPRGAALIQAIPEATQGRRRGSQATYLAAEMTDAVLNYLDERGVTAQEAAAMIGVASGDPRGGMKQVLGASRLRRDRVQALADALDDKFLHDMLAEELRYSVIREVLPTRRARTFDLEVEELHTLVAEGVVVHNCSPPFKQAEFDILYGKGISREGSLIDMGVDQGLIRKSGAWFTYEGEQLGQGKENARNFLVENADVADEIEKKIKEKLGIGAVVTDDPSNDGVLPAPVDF

[14] = Luminescence Cell-Based Dose Confirmation HTS to Identify Inhibitors of Polyadenylation.; assay type: functional
[15] = Trypanosoma cruzi growth suppression in host cells – NIH3T3 host cells, beta-gal luminescence, confirmation (AID 2044); assay type: functional, cell-based;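 also: intracellular parasites grown in NIH/3T3 mouse fibroblasts as host cells; luminescent beta-galactosidase reporter signal from transgenic T. cruzi replicating inside host cells; inhibitors lower the luminescence signal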
[16] = NIH3T3 cell viability loss – ATP luminescence, mouse fibroblasts, counter-screen, dose response (AID 2010); assay type: functional, cell-based;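 also: cells exposed to compound for about 90 hours before reading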
[17] = biological target: T6, DNA repair protein RAD52 homolog (Homo sapiens, UniProt P43351); assay type: functional, biochemical
T6 sequence (P43351 whole entry): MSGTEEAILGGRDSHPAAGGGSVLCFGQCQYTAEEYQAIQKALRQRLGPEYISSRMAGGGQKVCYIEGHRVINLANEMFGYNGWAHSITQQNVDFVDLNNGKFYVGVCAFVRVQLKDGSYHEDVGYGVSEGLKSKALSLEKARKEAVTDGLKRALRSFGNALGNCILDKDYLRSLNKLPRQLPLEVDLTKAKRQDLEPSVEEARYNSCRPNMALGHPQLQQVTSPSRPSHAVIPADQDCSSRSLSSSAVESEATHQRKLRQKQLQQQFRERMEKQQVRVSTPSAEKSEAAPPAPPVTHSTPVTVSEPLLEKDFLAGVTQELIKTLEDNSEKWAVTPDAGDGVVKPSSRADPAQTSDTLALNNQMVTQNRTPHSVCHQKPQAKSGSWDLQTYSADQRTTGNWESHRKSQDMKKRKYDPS

[18] = biological target: DNA repair and recombination protein RAD54-like (Homo sapiens, UniProt Q92698); experiment: RAD54 Holliday junction migration blockers – biochemical, fluorescence, cherry-picked samples, dose series, confirmation (AID 651657); assay type: functional
DNA repair and recombination protein RAD54-like, sequence (Q92698 whole entry): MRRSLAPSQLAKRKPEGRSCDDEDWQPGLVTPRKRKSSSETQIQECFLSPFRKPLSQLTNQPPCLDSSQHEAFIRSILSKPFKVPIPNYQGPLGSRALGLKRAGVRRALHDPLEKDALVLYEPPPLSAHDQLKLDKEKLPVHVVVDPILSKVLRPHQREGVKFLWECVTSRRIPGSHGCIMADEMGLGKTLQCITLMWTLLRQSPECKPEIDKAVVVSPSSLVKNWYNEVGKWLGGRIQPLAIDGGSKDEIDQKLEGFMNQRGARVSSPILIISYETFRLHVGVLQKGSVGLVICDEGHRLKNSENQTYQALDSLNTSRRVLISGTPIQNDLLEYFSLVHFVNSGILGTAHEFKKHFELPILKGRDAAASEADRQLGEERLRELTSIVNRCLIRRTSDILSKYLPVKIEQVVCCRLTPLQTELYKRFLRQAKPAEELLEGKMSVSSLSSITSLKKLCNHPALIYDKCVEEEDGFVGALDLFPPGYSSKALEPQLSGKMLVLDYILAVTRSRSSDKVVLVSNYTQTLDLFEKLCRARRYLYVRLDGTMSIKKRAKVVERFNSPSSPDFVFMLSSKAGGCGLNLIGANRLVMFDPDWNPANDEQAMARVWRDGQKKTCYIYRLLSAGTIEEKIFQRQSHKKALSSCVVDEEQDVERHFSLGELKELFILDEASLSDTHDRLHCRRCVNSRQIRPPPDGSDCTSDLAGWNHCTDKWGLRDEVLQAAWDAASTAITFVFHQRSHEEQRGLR

T1 sequence (Q9P0U3 whole entry, the tested form may be a part): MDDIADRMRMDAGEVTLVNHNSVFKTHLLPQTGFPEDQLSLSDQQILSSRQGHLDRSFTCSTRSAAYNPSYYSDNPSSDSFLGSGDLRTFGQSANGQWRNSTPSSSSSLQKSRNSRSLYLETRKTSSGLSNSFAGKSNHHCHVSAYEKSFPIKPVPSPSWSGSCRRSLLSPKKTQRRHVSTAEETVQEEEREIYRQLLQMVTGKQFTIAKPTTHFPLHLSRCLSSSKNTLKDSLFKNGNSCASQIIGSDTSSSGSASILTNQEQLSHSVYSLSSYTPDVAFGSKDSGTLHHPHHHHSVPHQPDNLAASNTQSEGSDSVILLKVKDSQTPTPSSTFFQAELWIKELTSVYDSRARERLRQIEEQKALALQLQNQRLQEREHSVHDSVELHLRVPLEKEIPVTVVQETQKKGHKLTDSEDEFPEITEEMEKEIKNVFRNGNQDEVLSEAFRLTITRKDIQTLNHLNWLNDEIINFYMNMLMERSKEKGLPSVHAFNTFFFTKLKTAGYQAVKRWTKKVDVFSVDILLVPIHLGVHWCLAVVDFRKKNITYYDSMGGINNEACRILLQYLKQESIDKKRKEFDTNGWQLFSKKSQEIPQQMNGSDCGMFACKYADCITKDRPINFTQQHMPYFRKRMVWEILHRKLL
Nuclear receptor subfamily 5 group A member 2, sequence (O00482 whole entry): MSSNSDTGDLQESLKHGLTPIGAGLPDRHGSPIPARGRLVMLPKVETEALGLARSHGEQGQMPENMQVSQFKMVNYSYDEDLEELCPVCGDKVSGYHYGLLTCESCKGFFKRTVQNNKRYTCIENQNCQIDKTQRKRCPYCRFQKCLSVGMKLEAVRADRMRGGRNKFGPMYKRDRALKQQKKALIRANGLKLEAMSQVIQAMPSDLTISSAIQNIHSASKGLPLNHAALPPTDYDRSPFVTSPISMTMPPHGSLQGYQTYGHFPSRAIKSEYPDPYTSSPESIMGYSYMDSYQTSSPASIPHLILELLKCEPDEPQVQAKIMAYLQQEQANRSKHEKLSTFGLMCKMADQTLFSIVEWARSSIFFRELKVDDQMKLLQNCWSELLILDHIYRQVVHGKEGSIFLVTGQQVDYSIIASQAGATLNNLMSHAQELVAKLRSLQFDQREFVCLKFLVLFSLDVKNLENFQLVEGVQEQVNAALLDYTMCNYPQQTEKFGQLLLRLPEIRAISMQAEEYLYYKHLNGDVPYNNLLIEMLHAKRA
Steroidogenic factor 1, sequence (Q13285 whole entry): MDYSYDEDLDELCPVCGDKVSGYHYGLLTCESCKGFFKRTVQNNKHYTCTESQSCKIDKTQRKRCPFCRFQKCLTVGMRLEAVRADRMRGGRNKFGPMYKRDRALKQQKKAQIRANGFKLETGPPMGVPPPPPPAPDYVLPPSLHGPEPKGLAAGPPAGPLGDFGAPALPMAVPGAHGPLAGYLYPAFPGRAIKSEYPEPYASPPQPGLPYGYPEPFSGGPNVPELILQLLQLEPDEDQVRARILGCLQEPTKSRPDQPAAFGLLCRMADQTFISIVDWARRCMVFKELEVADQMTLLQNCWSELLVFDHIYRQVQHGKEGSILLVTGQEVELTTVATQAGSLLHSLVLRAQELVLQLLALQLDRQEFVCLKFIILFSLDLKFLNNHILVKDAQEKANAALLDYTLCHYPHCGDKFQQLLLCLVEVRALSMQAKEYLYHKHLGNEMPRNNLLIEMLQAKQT
Palmitoyl-protein thioesterase ABHD10, mitochondrial, sequence (Q6PE15 whole entry): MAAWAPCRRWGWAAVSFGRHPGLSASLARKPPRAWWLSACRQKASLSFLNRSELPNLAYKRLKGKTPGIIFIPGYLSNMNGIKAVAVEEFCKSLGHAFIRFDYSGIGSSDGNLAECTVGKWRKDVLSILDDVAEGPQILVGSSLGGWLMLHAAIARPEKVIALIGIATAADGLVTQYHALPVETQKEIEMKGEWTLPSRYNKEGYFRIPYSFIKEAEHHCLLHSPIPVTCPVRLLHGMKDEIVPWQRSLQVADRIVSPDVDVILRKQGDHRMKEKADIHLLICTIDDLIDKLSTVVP
Hepatocyte nuclear factor 4-alpha, sequence (P41235 whole entry, the tested form may be a part): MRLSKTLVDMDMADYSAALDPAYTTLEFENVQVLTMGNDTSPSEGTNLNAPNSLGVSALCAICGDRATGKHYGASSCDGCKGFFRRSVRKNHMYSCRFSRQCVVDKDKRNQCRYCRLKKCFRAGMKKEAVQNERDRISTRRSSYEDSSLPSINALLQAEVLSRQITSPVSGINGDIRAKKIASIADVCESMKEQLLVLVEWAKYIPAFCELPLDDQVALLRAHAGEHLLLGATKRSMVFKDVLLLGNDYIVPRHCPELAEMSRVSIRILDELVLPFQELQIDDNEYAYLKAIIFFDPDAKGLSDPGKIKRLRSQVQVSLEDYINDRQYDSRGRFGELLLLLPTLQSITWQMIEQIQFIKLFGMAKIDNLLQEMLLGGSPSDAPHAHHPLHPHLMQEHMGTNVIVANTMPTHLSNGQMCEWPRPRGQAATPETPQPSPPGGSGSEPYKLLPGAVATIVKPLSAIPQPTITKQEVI

Q: Which results are given for `CC1=CC2C(C(O)CC3(C)C2CC(C)C32OCOC23COCO3)C2(C)CC(C=O)=C(O)C=C12` (configuration not stated)?
A: IC50 [1]: 11 µM (inactive); AC50 [2]: 4.34 µM (active)

Q: Which results are given for `COc1ccc(OC)c(NC(=O)c2ccccc2NC(=O)c2ccco2)c1`?
A: IC50 (Steroidogenic factor 1): 11.4 µM (inactive); IC50 [3]: 24 µM (inactive); IC50 [4]: 35.9 µM (inactive)

Q: For `O=C1c2cc(CO)cc(O)c2C(=O)c2c(O[C@@H]3OC(CO)[C@@H](O)[C@@H](O)[C@@H]3O)cccc21` (some centres not stated), which IC50 [5] is on record?
A: Its IC50 is 22.1 µM (inactive).

Q: And the IC50 [6]?
A: Its IC50 is 17.4 µM (active).

Q: Which results are given for `Cn1cnc([N+](=O)[O-])c1S(=O)(=O)Oc1ccc(Cl)cc1`?
A: IC50 [7]: 42.8 µM (inactive); IC50 [8]: 4.09 µM (active)

Q: With `CCOC(=O)N1C(=O)[C@@](CC)(c2cccc(C)c2)N1C(=O)OCC` as the compound, how does the IC50 [9] read?
A: Its IC50 is 0.06 µM (active).

Q: What does the source list for `Cc1[nH]n(-c2ccccc2)c(=O)c1/C=N\NC(=O)C1COc2ccccc2O1` (configuration not stated)?
A: IC50 [10]: 8.83 µM (active); EC50 [11]: 1.36 µM (active); EC50 (Streptococcus): 8.94 µM (active); AC50 [12]: 40.9 µM (active); AC50 (INS1): 5.03 µM (active); AC50 [13]: 104 µM (active); EC50 (Protein RecA): 17.5 µM (active)

Q: Which results are given for `COc1ccc(OC)c(Nc2nc(NCCO)c3ccccc3n2)c1`?
A: EC50 [14]: > 120 µM (not active); EC50 [15]: 2.1 µM (active); EC50 [16]: > 30 µM (not active); AC50 [17]: 4.32 µM (active); AC50 [18]: 11.6 µM (active)
